The source of these data is patent US20100222349A1, “QUINOLINE DERIVATIVES USED TO TREAT INFLAMMATORY AND ALLERGIC DISEASES” (Glaxo Group Limited, priority 2007, published 2010).

For test [1], the target named is T1, human H1 receptor (Homo sapiens, UniProt P35367).
T1 construct: expressed in transfected cells
The test can be described thus: Histamine H1 functional antagonist assay: determination of functional pKi values (FLIPR). Type of test: cell-based. Particulars: CHO cells expressing human H1 receptor, histamine at EC80, read-out: average pKi (pKb) at H1 (converted). On the procedure: The human H1 receptor is cloned using known procedures described in the literature [Biochem. Biophys. Res. Commun., 201(2):894 (1994)]. Chinese hamster ovary (CHO) cells stably expressing the human H1 receptor are generated according to known procedures described in the literature [Br. J. Pharmacol., 117(6):1071 (1996)]. The histamine H1 cell line is seeded into non-coated black-walled clear bottom 384-well tissue culture plates in alpha minimum essential medium (Gibco/Invitrogen, cat no. 22561-021), supplemented with 10′)/0 dialysed foetal calf serum (Gibco/Invitrogen cat no. 12480-021) and 2 mM L-glutamine (Gibco/Invitrogen cat no 25030-024) and is maintained overnight at 5% CO2, 37° C. Excess medium is removed from each well to leave 10 μl. 30 μl loading dye (250 μM Brilliant Black, 2 μM Fluo-4 diluted in Tyrodes buffer+probenecid (145 mM NaCl, 2.5 mM KCl, 10 mM HEPES, 10 mM D-glucose, 1.2 mM MgCl2, 1.5 mM CaCl2, 2.5 mM probenecid, pH adjusted to 7.40 with NaOH 1.0 M)) is added to each well and the plates are incubated for 60 min at 5% CO2, 37° C. 10 μl of test compound, diluted to the required concentration in Tyrodes buffer+probenecid (or 10 μl Tyrodes buffer+probenecid as a control) is added to each well and the plate is incubated for 30 min at 37° C., 5% CO2. The plates are then placed into a FLIPR™(Molecular Devices, UK) to monitor cell fluorescence (λex=488 nm, λEM=540 nm) in the manner described in Sullivan et al., (In: Lambert DG (ed.), Calcium Signaling Protocols, New Jersey: Humana Press, 1999, 125-136) before and after the addition of 10 μl histamine at a concentration that results in the final assay concentration of histamine being EC80. Functional antagonism is indicated by a suppression of histamine induced increase in fluorescence, as measured by the FLIPR™ system (Molecular Devices). By means of concentration effect curves, functional affinities are determined using standard pharmacological mathematical analysis.

Test [2] has as its target T2, histamine H3 receptor (Homo sapiens, UniProt Q9Y5N1).
T2 construct: expressed in transfected cells; host or cells: CHO K1 cells with pSwitch/pGeneH3 (GeneSwitch, mifepristone-induced), clone 3H3; membrane preparation
Briefly: Histamine H3 functional antagonist assay (GTPγS, membranes). Type of test: biochemical. Particulars: CHO K1 membranes, [35S]-GTPγS, histamine at EC80; read-out: average pKi (pKb) at H3 (converted). The procedure:
The histamine H3 cDNA is isolated from its holding vector, pcDNA3.1 TOPO (InVitrogen), by restriction digestion of plasmid DNA with the enzymes BamH1 and Not-1 and is ligated into the inducible expression vector pGene (InVitrogen) digested with the same enzymes. The GeneSwitchTM system (a system where in transgene expression is switched off in the absence of an inducer and switched on in the presence of an inducer) is performed as described in U.S. Pat. Nos. 5,364,791; 5,874,534; and 5,935,934. Ligated DNA is transformed into competent DH5α E. coli host bacterial cells and is plated onto Luria Broth (LB) agar containing ZeocinTM (an antibiotic which allows the selection of cells expressing the sh ble gene which is present on pGene and pSwitch) at 50 μgml^-1. Colonies containing the re-ligated plasmid are identified by restriction analysis. DNA for transfection into mammalian cells is prepared from 250 ml cultures of the host bacterium containing the […]3 plasmid and is isolated using a DNA preparation kit (Qiagen Midi-Prep) as per manufacturers guidelines (Qiagen). CHO K1 cells previously transfected with the pSwitch regulatory plasmid (InVitrogen) are seeded at 2×10^6 cells per T75 flask in Complete Medium, containing Hams F12 (GIBCOBRL, Life Technologies) medium supplemented with 10% v/v dialysed foetal bovine serum, L-glutamine, and hygromycin (100 μgml^-1), 24 h prior to use. Plasmid DNA is transfected into the cells using Lipofectamine plus according to the manufacturer's guidelines (InVitrogen). 48 h post transfection, cells are placed into complete medium supplemented with 500 μgml^-1 ZeocinTM. 10-14 days post selection, 10 nM Mifepristone (InVitrogen) is added to the culture medium to induce the expression of the receptor. 18 h post induction, cells are detached from the flask using ethylenediamine tetra-acetic acid (EDTA; 1:5000; InVitrogen), following several washes with PBS, pH 7.4 and are resuspended in Sorting Medium containing Minimum Essential Medium (MEM), without phenol red, and are supplemented with Earles salts and 3% Foetal Clone II (Hyclone). Approximately 1×10^7 cells are examined for receptor expression by staining with a rabbit polyclonal antibody, 4a, raised against the N-terminal domain of the histamine H3 receptor, are incubated on ice for 60 min, followed by two washes in sorting medium. Receptor bound antibody is detected by incubation of the cells for 60 min on ice with a goat anti rabbit antibody, conjugated with Alexa 488 fluorescence marker (Molecular Probes). Following two further washes with Sorting Medium, cells are filtered through a 50 μm FilconTM (BD Biosciences) and then are analysed on a FACS Vantage SE Flow Cytometer fitted with an Automatic Cell Deposition Unit. Control cells are non-induced cells treated in an analogous manner. Positively stained cells are sorted as single cells into 96-well plates, containing Complete Medium containing 500 μgml^-1 ZeocinTM and are allowed to expand before reanalysis for receptor expression via antibody and ligand binding studies. One clone, 3H3, is selected for membrane preparation. All steps of the protocol are carried out at 4° C. and with pre-cooled reagents. The cell pellet is resuspended in 10 volumes of homogenisation buffer (50 mM N-2-hydroxyethylpiperazine-N'-2-ethanesulfonic acid (HEPES), 1 mM ethylenediamine tetra-acetic acid (EDTA), pH 7.4 with KOH, supplemented with 10^-6 M leupeptin (acetyl-leucyl-leucyl-arginal; Sigma L2884), 25 μgml^-1 bacitracin (Sigma B0125), 1 mM phenylmethylsulfonyl fluoride (PMSF) and 2×10^-6 M pepstain A (Sigma)). The cells are then homogenised by 2×15 sec bursts in a 1 L glass Waring blender, followed by centrifugation at 500 g for 20 min. The supernatant is then spun at 48,000 g for 30 min. The pellet is resuspended in homogenisation buffer (4× the volume of the original cell pellet) by vortexing for 5 sec, followed by homogenisation in a Dounce homogeniser (10-15 strokes). […]

Each structure is given as a SMILES string.

T2 sequence (Q9Y5N1 whole entry, species assumed): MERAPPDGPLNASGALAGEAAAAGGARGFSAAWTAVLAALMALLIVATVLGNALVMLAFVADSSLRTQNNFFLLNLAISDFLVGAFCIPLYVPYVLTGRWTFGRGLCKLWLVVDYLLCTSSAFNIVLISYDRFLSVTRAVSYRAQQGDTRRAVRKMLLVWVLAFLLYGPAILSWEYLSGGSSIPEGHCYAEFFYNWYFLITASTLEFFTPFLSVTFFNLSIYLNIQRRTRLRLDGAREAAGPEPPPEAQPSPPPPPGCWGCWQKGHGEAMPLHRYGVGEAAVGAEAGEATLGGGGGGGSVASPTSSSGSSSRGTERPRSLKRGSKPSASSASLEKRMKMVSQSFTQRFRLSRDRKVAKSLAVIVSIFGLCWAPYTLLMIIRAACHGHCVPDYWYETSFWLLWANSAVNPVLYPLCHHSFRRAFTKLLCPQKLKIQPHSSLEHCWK
T1 sequence (P35367 whole entry): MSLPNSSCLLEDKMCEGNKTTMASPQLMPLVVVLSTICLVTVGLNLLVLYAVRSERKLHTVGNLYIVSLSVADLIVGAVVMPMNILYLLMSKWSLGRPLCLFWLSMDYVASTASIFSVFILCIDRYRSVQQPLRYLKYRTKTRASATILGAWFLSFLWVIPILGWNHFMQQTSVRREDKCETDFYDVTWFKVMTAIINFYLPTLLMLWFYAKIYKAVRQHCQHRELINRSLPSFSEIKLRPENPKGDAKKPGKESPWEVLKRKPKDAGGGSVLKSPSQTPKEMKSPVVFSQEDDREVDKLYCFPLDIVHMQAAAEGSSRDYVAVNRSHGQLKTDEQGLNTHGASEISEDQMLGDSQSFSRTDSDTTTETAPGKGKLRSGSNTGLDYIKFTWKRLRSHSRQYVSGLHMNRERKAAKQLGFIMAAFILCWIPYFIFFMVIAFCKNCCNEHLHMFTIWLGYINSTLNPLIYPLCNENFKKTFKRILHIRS

Take `CCCCc1cc(O[C@@H]2CCN(CCC(=O)N(CC)CC)C2)c2ncccc2c1` [Example 35, 3-{(3R)-3-[(6-butyl-8-quinolinyl)oxy]-1-pyrrolidinyl}-N,N-diethylpropanamide]: the figures for the Ki in test [1] and in test [2] were less than 10 nM and more than 316 nM, respectively.
For `CCCCCCc1cc(OC2CCN(C[C@H]3CC[C@H](C(=O)N4CCCC4)CC3)CC2)c2ncccc2c1` [Example 54, 6-hexyl-8-[(1-{[trans-4-(1-pyrrolidinylcarbonyl)cyclohexyl]methyl}-4-piperidinyl)oxy]quinoline], the Ki in test [1] is less than 100 nM; in test [2] it was more than 316 nM.
For `CCCCc1cc(OC2CCN(CCNC(=O)CCC)CC2)c2ncccc2c1` [Example 74, N-(2-{4-[(6-butyl-8-quinolinyl)oxy]-1-piperidinyl}ethyl) butanamide] the same measures were less than 10 nM and more than 316 nM.
The matching figures for `CCCCCCc1cc(OC2CCN(C[C@H]3CC[C@H](C(=O)NCCC)CC3)CC2)c2ncccc2c1` [Example 55, trans-4-({4-[(6-hexyl-8-quinolinyl)oxy]-1-piperidinyl}methyl)-N-propylcyclohexane carboxamide]: less than 100 nM and more than 316 nM.
On to `CCCCc1cc(OC2CCN(CCC(=O)NCCCOC)CC2)c2ncccc2c1` [Example 16, 3-{4-[(6-butyl-8-quinolinyl)oxy]-1-piperidinyl}-N-[3-(methyloxy)propyl] propanamide], for which the Ki in test [1] was less than 10 nM; in test [2], more than 3160 nM.
The matching figures for `CCCCCCc1cc(OC2CCN(C[C@H]3CC[C@H](C(=O)NCc4ccc(C)cc4)CC3)CC2)c2ncccc2c1` [Example 49, trans-4-({4-[(6-hexyl-8-quinolinyl)oxy]-1-piperidinyl}methyl)-N-[(4-methylphenyl)methyl]cyclohexane carboxamide]: less than 100 nM and more than 316 nM.
The matching figures for `CCCCc1cc(OC2CCN(CCCNC(=O)C(C)C)CC2)c2ncccc2c1` [Example 68, N-(3-{4-[(6-butyl-8-quinolinyl)oxy]-1-piperidinyl}propyl)-2-methyl propanamide]: less than 10 nM and more than 316 nM.
The matching figures for `CCCCCc1cc(OC2CCN(CCCC(=O)NC(C)(C)C)CC2)c2ncccc2c1` [Example 88, N-(1,1-dimethylethyl)-4-{4-[(6-pentyl-8-quinolinyl)oxy]-1-piperidinyl}butanamide]: less than 10 nM and more than 316 nM.
`CCCCc1cc(OC2CCN(CC(=O)N(CC)CC)CC2)c2ncccc2c1` [Example 9, 2-{4-[(6-butyl-8-quinolinyl)oxy]-1-piperidinyl}-N,N-diethylacetamide]: the figures for the Ki in test [1] and in test [2] were less than 100 nM and more than 3160 nM, respectively.
In the case of `CCCCc1cc(OC2CCN(CCC(=O)NC(C)C)CC2)c2ncccc2c1` [Example 19, 3-{4-[(6-butyl-8-quinolinyl)oxy]-1-piperidinyl}-N-(1-methylethyl) propanamide], the Ki in test [1] is less than 10 nM; in test [2], more than 3160 nM.
The matching figures for `CCCCc1cc(O[C@@H]2CCN(CCC(=O)N3CCCCC3)C2)c2ncccc2c1` [Example 33, 6-butyl-8-({(3R)-1-[3-oxo-3-(1-piperidinyl)propyl]-3-pyrrolidinyl}oxy)quinoline]: less than 10 nM and more than 316 nM.
The matching figures for `CCCCCc1cc(OC2CCN(CCCNC(=O)C(C)(C)C)CC2)c2ncccc2c1` [Example 91, 2,2-Dimethyl-N-(3-{4-[(6-pentyl-8-quinolinyl)oxy]-1-piperidinyl}propyl) propanamide]: less than 10 nM and more than 316 nM.
For `CCCCCCc1cc(OC2CCN(C[C@H]3CC[C@H](C(=O)N(CC)CC)CC3)CC2)c2ncccc2c1` [Example 53, trans-N,N-diethyl-4-({4-[(6-hexyl-8-quinolinyl)oxy]-1-piperidinyl}methyl) cyclohexane carboxamide] the same measures were less than 100 nM and more than 316 nM.
With `CCCCc1cc(OC2CCN(C[C@H]3CC[C@H](C(=O)NC(C)C)CC3)CC2)c2ncccc2c1` [Example 42, Trans-4-({4-[(6-butyl-8-quinolinyl)oxy]-1-piperidinyl}methyl)-N-(1-methylethyl)cyclohexanecarboxamide], the Ki in test [1] was less than 100 nM; in test [2] it was more than 316 nM.
`CCCCCCc1cc(OC2CCN(C[C@H]3CC[C@H](C(=O)NCC(C)(C)C)CC3)CC2)c2ncccc2c1` [Example 52, trans-N-(2,2-dimethylpropyl)-4-({4-[(6-hexyl-8-quinolinyl)oxy]-1-piperidinyl}methyl)cyclohexane carboxamide]: the Ki is less than 100 nM in test [1] and more than 316 nM in test [2].
On to `CCCCc1cc(OC2CCN(CCCC(=O)NCCC)CC2)c2ncccc2c1` [Example 22, 4-{4-[(6-butyl-8-quinolinyl)oxy]-1-piperidinyl}-N-propylbutanamide], for which the Ki is less than 10 nM in test [1] and more than 3160 nM in test [2].
Consider `CCCCc1cc(OC2CCN(CCNC(=O)C(C)C)CC2)c2ncccc2c1` [Example 71, N-(2-{4-[(6-butyl-8-quinolinyl)oxy]-1-piperidinyl}ethyl)-2-methylpropanamide], for which the Ki in test [1] was less than 10 nM; in test [2], more than 316 nM.
The matching figures for `CCCCc1cc(OC2CCN(C[C@H]3CC[C@H](C(=O)NCCCOC)CC3)CC2)c2ncccc2c1` [Example 47, trans-4-({4-[(6-butyl-8-quinolinyl)oxy]-1-piperidinyl}methyl)-N-[3-(methyloxy)propyl]cyclohexane carboxamide]: less than 10 nM and more than 316 nM.
The matching figures for `CCCCc1cc(OC2CCN(CCCNC(=O)CC)CC2)c2ncccc2c1` [Example 86, N-(3-{4-[(6-Butyl-8-quinolinyl)oxy]-1-piperidinyl}propyl)propanamide]: less than 10 nM and more than 316 nM.
